One assay addresses recombinant PKR1 (Homo sapiens (Human), UniProt Q8TCW9). In words: Aequorin-based luminescent Ca2+ mobilization assay, antagonist mode, PKR1. The assay is classed as cell-based. Conditions: CHO cells stably expressing aequorin and recombinant PKR1; challenge with recombinant PK2; Ki converted from IC50 by IC50/(1+[PK2]/EC50PK2). Here is the method: (§1) An aequorin-based luminescent assay for calcium mobilization was used to measure mobilization of intracellular Ca^2+ (Bullock et al., Mol Pharmacol 65, 582-588, 2004). Chinese hamster ovary (CHO) cells stably expressing photoprotein aequorin and recombinant PKR1 or PKR2 were tested by this method. Briefly, the cells were charged in Opti-MEM™ (Invitrogen) containing 8 μM of coelenterazine cp at 37° C. for 2 hours. Cells were detached by brief trypsinization and maintained in Hank's Balanced Salt Solution (HBSS) plus 10 mM HEPES (pH7.5) and 0.1% BSA at about 5×10^5 cells/ml. Luminescence measurements were made using a Berthold luminometer.
(§2) All compounds were diluted in HBSS plus 10 mM HEPES (pH7.5) and 0.1% BSA. To test the agonist activity, 100 μl of cells were injected into the tubes with 20 μl of compounds. For antagonist assays, 80 μl cells were incubated in the tubes with 20 μl different concentrations of antagonists at room temperature for 20 minutes, and then 100 μl of recombinant PK2 were injected. The IC50 obtained from the assays were then converted to Ki values using the formula: IC50/(1+[PK2]/EC50PK2).
On the technique in general: A change in cytosolic calcium serves as a functional read-out for many receptors and channels.

For another assay, the target named is recombinant PKR2 (Homo sapiens (Human), UniProt Q8NFJ6). Briefly: Aequorin-based luminescent Ca2+ mobilization assay, antagonist mode, PKR2. The following applies: CHO cells stably expressing aequorin and recombinant PKR2; challenge with recombinant PK2; Ki converted from IC50 by IC50/(1+[PK2]/EC50PK2). The assay is classed as cell-based. Here is the method:
as §1, §2

Assay [1] has as its system mice. In words: Locomotor activity in mice after PK2 antagonist. It is filed as in vivo.
Assay [2] deals with mice. Briefly: Arousal level (EEG/EMG wake time) in mice after PK2 antagonist. The assay is classed as in vivo.
For the next assay, the system named is monkeys. Briefly: Sleep time in monkeys (wireless sleep tracker) after PK2 antagonist. The assay is classed as in vivo, Macaca fascicularis.

Values joined by “and” are separate entries in the source; they are usually repeats but may differ in a detail not shown here. Identical values can stand only once.

recombinant PKR1, sequence (Q8TCW9 whole entry): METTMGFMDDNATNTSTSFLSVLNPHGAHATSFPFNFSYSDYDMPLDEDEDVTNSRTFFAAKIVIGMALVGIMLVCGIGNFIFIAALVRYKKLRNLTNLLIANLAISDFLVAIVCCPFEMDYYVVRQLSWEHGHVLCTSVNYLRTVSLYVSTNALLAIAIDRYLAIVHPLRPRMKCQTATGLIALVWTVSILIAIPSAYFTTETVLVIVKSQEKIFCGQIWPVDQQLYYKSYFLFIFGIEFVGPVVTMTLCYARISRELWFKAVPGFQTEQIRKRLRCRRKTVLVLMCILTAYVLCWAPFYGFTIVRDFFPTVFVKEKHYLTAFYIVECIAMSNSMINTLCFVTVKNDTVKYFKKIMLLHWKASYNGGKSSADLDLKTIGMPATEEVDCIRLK
recombinant PKR2, sequence (Q8NFJ6 whole entry): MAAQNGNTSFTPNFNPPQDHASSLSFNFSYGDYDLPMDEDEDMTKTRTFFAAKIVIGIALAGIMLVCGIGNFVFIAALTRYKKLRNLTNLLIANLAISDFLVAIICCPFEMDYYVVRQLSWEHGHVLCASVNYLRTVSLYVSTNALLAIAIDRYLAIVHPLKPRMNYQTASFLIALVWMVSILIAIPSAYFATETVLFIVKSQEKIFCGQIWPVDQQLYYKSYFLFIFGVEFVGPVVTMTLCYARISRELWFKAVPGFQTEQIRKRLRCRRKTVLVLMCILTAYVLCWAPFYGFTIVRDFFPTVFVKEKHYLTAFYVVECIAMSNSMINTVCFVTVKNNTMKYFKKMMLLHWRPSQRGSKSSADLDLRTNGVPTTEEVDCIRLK

What is called Ki is a measure of affinity in units of concentration, obtained from inhibition or displacement. Consider `COc1cc(CN2CC[C@@H](C(=O)N(Cc3cc(Cl)c4c(c3)OCCCO4)CC(C)C)C2)c(F)cc1F` [(−)-(3R)-1-(4,6-Difluoro-3-methoxybenzyl)-N-(9-chloro-3,4-dihydro-2H-1,5-benzodioxepin-7-ylmethyl)-N-isobutylpyrrolidine-3-carboxamide], for which the inhibition constant Ki at recombinant PKR1 turned out to be 6.14 nM.
On the same count and under the same terms, next, `COc1cccc(CN2CCO[C@@H](C(=O)N(Cc3cc(Cl)c4c(c3)OCCCO4)CC(C)C)C2)c1` [(−)-(2R)-1-(3-Methoxybenzyl)-N-(9-chloro-3,4-dihydro-2H-1,5-benzodioxepin-7-ylmethyl)-N-isobutylmorpholine-2-carboxamide]: 2.5 nM; `COc1ccccc1CN1CCO[C@@H](C(=O)N(Cc2cc(Cl)c3c(c2)OCCCO3)CC(C)C)C1` [(−)-(2R)-1-(2-Methoxybenzyl)-N-(9-chloro-3,4-dihydro-2H-1,5-benzodioxepin-7-ylmethyl)-N-isobutylmorpholine-2-carboxamide]: 1.49 nM; `COc1cc(CN2CCO[C@@H](C(=O)N(Cc3cc(Cl)c4c(c3)OCCCO4)CC(C)C)C2)c(F)cc1F` [(−)-(2R)-1-(4,6-Difluoro-3-methoxybenzyl)-N-(9-chloro-3,4-dihydro-2H-1,5-benzodioxepin-7-ylmethyl)-N-isobutylmorpholine-2-carboxamide]: 4.09 nM.
Still for that read-out and setting: next, `CC(C)CN(Cc1cc(Cl)c2c(c1)OCCCO2)C(=O)[C@@H]1CCN(Cc2ccc(F)c(O)c2)C1` [(−)-(3R)-1-(4-Fluoro-3-hydroxybenzyl)-N-(9-chloro-3,4-dihydro-2H-1,5-benzodioxepin-7-ylmethyl)-N-isobutylpyrrolidine-3-carboxamide]: 107 nM.
Regarding `CC(C)CN(Cc1cc(Cl)c2c(c1)OCCCO2)C(=O)C(C)CNCc1cccc2nc[nH]c12` (racemic) [(±)-2-Methyl-3-(benzimidazol-4-ylmethylamino)-N-(9-chloro-3,4-dihydro-2H-1,5-benzodioxepin-7-ylmethyl)-N-isobutylpropanamide], the values for the Ki at recombinant PKR2 and at recombinant PKR1 were 2.1 nM and 5.6 nM, respectively.
For the compound `COc1ccc(F)c(CN2CCO[C@@H](C(=O)N(Cc3cc(Cl)c4c(c3)OCCCO4)CC(C)C)C2)c1` [(−)-(2R)-1-(6-Fluoro-3-methoxybenzyl)-N-(9-chloro-3,4-dihydro-2H-1,5-benzodioxepin-7-ylmethyl)-N-isobutylmorpholine-2-carboxamide], the Ki at recombinant PKR1 amounted to 10 nM.
Take `COc1cc(F)ccc1CN1CCO[C@@H](C(=O)N(Cc2cc(Cl)c3c(c2)OCCCO3)CC(C)C)C1` [(−)-(2R)-1-(4-Fluoro-2-methoxybenzyl)-N-(9-chloro-3,4-dihydro-2H-1,5-benzodioxepin-7-ylmethyl)-N-isobutylmorpholine-2-carboxamide]: the Ki at recombinant PKR1 stood at 7.3 nM.
On the same count and under the same terms, next, `CC(C)CN(Cc1cc(Cl)c2c(c1)OCCCO2)C(=O)C(C)CNCc1ccc(F)c(O)c1` (racemic) [(±)-2-Methyl-3-((3-hydroxy-4-fluoro)benzylamino)-N-(9-chloro-3,4-dihydro-2H-1,5-benzodioxepin-7-ylmethyl)-N-isobutylpropanamide]: 4.4 nM.
Same read-out and setting: to `COc1ccc(F)cc1CN1CCO[C@@H](C(=O)N(Cc2cc(Cl)c3c(c2)OCCCO3)CC(C)C)C1` [(−)-(2R)-1-(5-Fluoro-2-methoxybenzyl)-N-(9-chloro-3,4-dihydro-2H-1,5-benzodioxepin-7-ylmethyl)-N-isobutylmorpholine-2-carboxamide] belongs 7.3 nM.
Take `CC(C)CN(Cc1cc(Cl)c2c(c1)OCCCO2)C(=O)[C@@H]1CCCN(Cc2cccc3nc[nH]c23)C1` [(−)-(3R)-1-(benzimidazol-4-ylmethyl)-N-(9-chloro-3,4-dihydro-2H-1,5-benzodioxepin-7-ylmethyl)-N-isobutylpiperidine-3-carboxamide]: the Ki on recombinant PKR2 was 3 nM; on recombinant PKR1, 97 nM.
As to `COc1cc(CN2CC[C@@H](C(=O)N(Cc3cc(Cl)c4c(c3)OCCCO4)CC(C)C)C2)ccc1F` [PKRA83, (3R)-1-(4-Fluoro-3-methoxybenzyl)-N-(9-chloro-3,4-dihydro-2H-1,5-benzodioxepin-7-ylmethyl)-N-isobutylpyrrolidine-3-carb oxamide], the locomotor activity entry was “significantly increased” in the assay with mice [1] (mice, 40 mg/kg intraperitoneally at ZT6, vs vehicle (FIG. 6A)) and “increased” in the assay on mice [1] (wild type mice, ocular topic delivery during the late night, vs control (FIG. 13)). For the same compound, the “wakefulness (wake time)” value with mice [2] (40 mg/kg intraperitoneally at ZT6, vs vehicle (FIG. 6B)) is given as “significantly increased”. Further, the wake time entry in the assay on mice [2] (ocular topic application at day time, P<0.05 paired t-test (FIG. 14)) is given as “significantly increased”. Moreover, the “increase of the sleep time” value in the assay on monkeys (10 mg/kg intramuscularly at ZT10, vs vehicle (FIG. 6C)) was greater than 70 min. For the same compound, the sleep time entry in the assay with monkeys (nasal topic application, P<0.05 paired t-test (FIG. 19)) is “significantly increased”; in the assay on monkeys (ocular topic application, P<0.05 paired t-test (FIG. 15)), “significantly increased”.
Turning to `CC(C)CN(Cc1cc(Cl)c2c(c1)OCCCO2)C(=O)[C@H]1CN(Cc2cc(F)cc3nc[nH]c23)CCO1` [(−)-(2R)-1-(5-fluro-benzimidazol-4-ylmethyl)-N-(9-chloro-3,4-dihydro-2H-1,5-benzodioxepin-7-ylmethyl)-N-isobutylmorpholine-2-carboxamide], the Ki on recombinant PKR1 worked out at 6.14 nM.
As to `COc1ccc(F)c(CN2CC[C@@H](C(=O)N(Cc3cc(Cl)c4c(c3)OCCCO4)CC(C)C)C2)c1` [(−)-(3R)-1-(6-Fluoro-3-methoxybenzyl)-N-(9-chloro-3,4-dihydro-2H-1,5-benzodioxepin-7-ylmethyl)-N-isobutylpyrrolidine-3-carboxamide], the Ki at recombinant PKR1 came out at 301 nM.
The same measure, in the same setting: to `CC(C)CN(Cc1cc(Cl)c2c(c1)OCCCO2)C(=O)[C@@H]1CCN(Cc2cc(F)cc3nc[nH]c23)C1` [(−)-(3R)-1-(5-fluro-benzimidazol-4-ylmethyl)-N-(9-chloro-3,4-dihydro-2H-1,5-benzodioxepin-7-ylmethyl)-N-isobutylpyrrolidine-3-carboxamide] belongs 71.3 nM.
In the case of `CC(C)CN(Cc1cc(Cl)c2c(c1)OCCCO2)C(=O)[C@@H]1CCN(Cc2cccc3nc[nH]c23)C1` [(−)-(3R)-1-(benzimidazol-4-ylmethyl)-N-(9-chloro-3,4-dihydro-2H-1,5-benzodioxepin-7-ylmethyl)-N-isobutylpyrrolidine-3-carboxamide], the inhibition constant Ki at recombinant PKR2 was determined as 1.7 nM; on recombinant PKR1, 2.6 nM.
As to `COc1c(F)cccc1CN1CC[C@@H](C(=O)N(Cc2cc(Cl)c3c(c2)OCCCO3)CC(C)C)C1` [(−)-(3R)-1-(3-Fluoro-2-methoxybenzyl)-N-(9-chloro-3,4-dihydro-2H-1,5-benzodioxepin-7-ylmethyl)-N-isobutylpyrrolidine-3-carboxamide], at recombinant PKR1, the inhibitory constant (Ki) was 170 nM.
For `COc1cc(CN2CCO[C@@H](C(=O)N(Cc3cc(Cl)c4c(c3)OCCCO4)CC(C)C)C2)ccc1F` [(−)-(2R)-1-(4-Fluoro-3-methoxybenzyl)-N-(9-chloro-3,4-dihydro-2H-1,5-benzodioxepin-7-ylmethyl)-N-isobutylmorpholine-2-carboxamide], the Ki at recombinant PKR2 was 1.9 nM; at recombinant PKR1 it was 2.6 nM and 5.4 nM.
As for `COc1ccc(F)cc1CN1CC[C@@H](C(=O)N(Cc2cc(Cl)c3c(c2)OCCCO3)CC(C)C)C1` [(−)-(3R)-1-(5-Fluoro-2-methoxybenzyl)-N-(9-chloro-3,4-dihydro-2H-1,5-benzodioxepin-7-ylmethyl)-N-isobutylpyrrolidine-3-carboxamide], on recombinant PKR1, the inhibitory constant (Ki) is 9.3 nM and 6.9 nM.
The same measure, in the same setting: next, `CC(C)CN(Cc1cc(Cl)c2c(c1)OCCCO2)C(=O)[C@H](C)CNCc1cccc2nc[nH]c12` [(−)-(2R)-2-Methyl-3-(benzimidazol-4-ylmethylamino)-N-(9-chloro-3,4-dihydro-2H-1,5-benzodioxepin-7-ylmethyl)-N-isobutylpropanamide]: 3.5 nM and 4.2 nM.
As to `COc1cc(CN2CCC[C@@H](C(=O)N(Cc3cc(Cl)c4c(c3)OCCCO4)CC(C)C)C2)c(F)cc1F` [(−)-(3R)-1-(4,6-Difluoro-3-methoxybenzyl)-N-(9-chloro-3,4-dihydro-2H-1,5-benzodioxepin-7-ylmethyl)-N-isobutylpiperidine-3-carboxamide], the Ki at recombinant PKR1 was found to be 13.8 nM.
Still for that read-out and setting: to `COc1cc(F)ccc1CN1CC[C@@H](C(=O)N(Cc2cc(Cl)c3c(c2)OCCCO3)CC(C)C)C1` [(−)-(3R)-1-(4-Fluoro-2-methoxybenzyl)-N-(9-chloro-3,4-dihydro-2H-1,5-benzodioxepin-7-ylmethyl)-N-isobutylpyrrolidine-3-carboxamide] belongs 9.32 nM.
The same measure, in the same setting: to `COc1cc(CNCC(C)C(=O)N(Cc2cc(Cl)c3c(c2)OCCCO3)CC(C)C)c(F)cc1F` (racemic) [(±)-2-Methyl-3-((3-methoxy-4,6-difluoro)benzylamino)-N-(9-chloro-3,4-dihydro-2H-1,5-benzodioxepin-7-ylmethyl)-N-isobutylpropanamide] belongs 43.5 nM.

The values are drawn from patent US10780095B2, “Compositions and methods for treating disorders of circadian and diurnal rhythms using prokineticin 2 agonists and antagonists” (THE REGENTS OF THE UNIVERSITY OF CALIFORNIA, priority 2016, dated 2020).
